Bridge positions count the residues as written; N and C are the ends. Square brackets hold non-standard residues; d marks the D form. Peptide text beside a SMILES is read from it. Phe(4-CH2NHiPr) = CC(C)NCc1ccc(C[C@H](N)C(=O)O)cc1
Key:
[1] = biological target: Somatostatin receptor type 1 (Homo sapiens, UniProt P30872); assay: Tested for ability to bind to 20 uM thick cryostat sections of a membrane pellet of cells transfected with human cloned somatostatin (sst) receptor subtype 1.
[2] = biological target: Somatostatin receptor type 4 (Homo sapiens, UniProt P31391); assay: Tested for ability to bind to 20 uM thick cryostat sections of a membrane pellet of cells transfected with human cloned somatostatin (sst) receptor subtype 4.
Somatostatin receptor type 4, sequence (P31391 whole entry): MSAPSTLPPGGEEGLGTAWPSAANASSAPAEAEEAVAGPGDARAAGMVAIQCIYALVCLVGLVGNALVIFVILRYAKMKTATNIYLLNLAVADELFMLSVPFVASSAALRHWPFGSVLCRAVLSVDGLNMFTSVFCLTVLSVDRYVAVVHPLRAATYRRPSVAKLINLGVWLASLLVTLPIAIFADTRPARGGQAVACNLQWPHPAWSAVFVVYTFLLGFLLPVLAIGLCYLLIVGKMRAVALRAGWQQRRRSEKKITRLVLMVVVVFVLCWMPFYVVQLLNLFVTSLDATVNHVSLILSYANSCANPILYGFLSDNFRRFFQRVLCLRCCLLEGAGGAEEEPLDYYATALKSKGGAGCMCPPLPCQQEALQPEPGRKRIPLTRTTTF

[3] = biological target: Somatostatin receptor type 5 (Homo sapiens, UniProt P35346); assay: Tested for ability to bind to 20 uM thick cryostat sections of a membrane pellet of cells transfected with human cloned somatostatin (sst) receptor subtype 5.
Somatostatin receptor type 5, sequence (P35346 whole entry): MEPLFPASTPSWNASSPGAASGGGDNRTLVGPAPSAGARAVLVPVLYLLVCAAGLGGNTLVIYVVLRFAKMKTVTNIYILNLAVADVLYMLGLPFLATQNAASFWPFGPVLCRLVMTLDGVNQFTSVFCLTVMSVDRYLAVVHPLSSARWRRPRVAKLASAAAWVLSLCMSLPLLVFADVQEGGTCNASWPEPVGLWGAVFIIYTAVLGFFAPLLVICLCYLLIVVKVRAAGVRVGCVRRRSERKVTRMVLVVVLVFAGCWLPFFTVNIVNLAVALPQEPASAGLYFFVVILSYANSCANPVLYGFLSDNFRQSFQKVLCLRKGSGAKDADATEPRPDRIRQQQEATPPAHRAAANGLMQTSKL

[4] = biological target: Somatostatin receptor type 2 (Homo sapiens, UniProt P30874); assay: Tested for ability to bind to 20 uM thick cryostat sections of a membrane pellet of cells transfected with human cloned somatostatin (sst) receptor subtype 2.
Somatostatin receptor type 2, sequence (P30874 whole entry): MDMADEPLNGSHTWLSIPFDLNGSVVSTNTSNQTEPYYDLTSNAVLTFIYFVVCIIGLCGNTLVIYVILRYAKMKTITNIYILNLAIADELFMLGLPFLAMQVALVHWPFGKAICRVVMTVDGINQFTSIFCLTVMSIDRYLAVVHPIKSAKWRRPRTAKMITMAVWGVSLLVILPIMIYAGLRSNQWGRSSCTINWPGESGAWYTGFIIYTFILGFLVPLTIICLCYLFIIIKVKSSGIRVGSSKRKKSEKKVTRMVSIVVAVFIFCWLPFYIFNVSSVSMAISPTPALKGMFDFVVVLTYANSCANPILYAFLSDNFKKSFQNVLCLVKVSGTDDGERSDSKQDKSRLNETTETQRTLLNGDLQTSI

[5] = biological target: Somatostatin receptor type 3 (Homo sapiens, UniProt P32745); assay: Tested for ability to bind to 20 uM thick cryostat sections of a membrane pellet of cells transfected with human cloned somatostatin (sst) receptor subtype 3.
Somatostatin receptor type 3, sequence (P32745 whole entry): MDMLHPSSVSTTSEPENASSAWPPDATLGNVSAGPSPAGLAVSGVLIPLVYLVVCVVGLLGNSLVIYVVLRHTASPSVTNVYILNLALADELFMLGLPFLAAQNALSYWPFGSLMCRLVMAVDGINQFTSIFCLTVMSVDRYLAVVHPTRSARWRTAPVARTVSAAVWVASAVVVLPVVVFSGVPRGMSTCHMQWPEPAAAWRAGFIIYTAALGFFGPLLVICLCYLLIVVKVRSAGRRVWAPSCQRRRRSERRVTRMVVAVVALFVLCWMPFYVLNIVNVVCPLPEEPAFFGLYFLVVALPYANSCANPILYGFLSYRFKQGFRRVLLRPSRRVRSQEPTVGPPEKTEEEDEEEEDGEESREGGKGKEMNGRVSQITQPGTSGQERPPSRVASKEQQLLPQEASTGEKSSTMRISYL

Somatostatin receptor type 1, sequence (P30872 whole entry): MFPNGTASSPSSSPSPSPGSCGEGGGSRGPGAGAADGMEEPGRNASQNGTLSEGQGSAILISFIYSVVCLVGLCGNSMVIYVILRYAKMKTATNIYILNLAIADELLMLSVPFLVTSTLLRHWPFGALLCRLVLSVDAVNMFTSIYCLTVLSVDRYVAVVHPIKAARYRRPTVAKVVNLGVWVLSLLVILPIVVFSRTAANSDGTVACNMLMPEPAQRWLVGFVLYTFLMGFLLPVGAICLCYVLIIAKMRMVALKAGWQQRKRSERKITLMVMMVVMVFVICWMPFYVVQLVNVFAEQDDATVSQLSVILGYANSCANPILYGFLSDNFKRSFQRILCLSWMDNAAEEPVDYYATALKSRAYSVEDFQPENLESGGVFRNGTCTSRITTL

SMILES	IC50 [1] [nM]	IC50 [2] [nM]	IC50 [3] [nM]	IC50 [4] [nM]	IC50 [5] [nM]
C[C@@H](O)[C@@H]1NC(=O)[C@H](Cc2ccccc2)NC(=O)[C@H]([C@@H](C)O)NC(=O)[C@H](Cc2ccc(CN)cc2)NC(=O)[C@@H](Cc2ccc3ccccc3c2)NC(=O)[C@H](Cc2ccccc2)NC(=O)[C@H](Cc2ccccc2)NC(=O)[C@H](CCCCN)NC(=O)[C@@H](N)CSSC[C@@H](C(=O)O)NC(=O)[C@H](CO)NC1=O	347	> 1000	385	343	81
CNCc1ccc(C[C@@H]2NC(=O)[C@@H](Cc3ccc4ccccc4c3)NC(=O)[C@H](Cc3ccccc3)NC(=O)[C@H](Cc3ccccc3)NC(=O)[C@H](CCCCN)NC(=O)[C@@H](N)CSSC[C@@H](C(=O)O)NC(=O)[C@H](CO)NC(=O)[C@H]([C@@H](C)O)NC(=O)[C@H](Cc3ccccc3)NC(=O)[C@H]([C@@H](C)O)NC2=O)cc1	101	> 10000	> 1000	556	280
CC(C)NCc1ccc(C[C@@H]2NC(=O)[C@@H](Cc3c[nH]c4ccccc34)NC(=O)[C@H](Cc3ccccc3)NC(=O)[C@H](Cc3ccccc3)NC(=O)[C@H](CC(N)=O)NC(=O)[C@H](CCCCN)NC(=O)[C@@H](N)CSSC[C@@H](C(=O)O)NC(=O)[C@H](CO)NC(=O)[C@H]([C@@H](C)O)NC(=O)[C@H](Cc3ccccc3)NC(=O)[C@H]([C@@H](C)O)NC2=O)cc1 (H-CKNFF[dW][Phe(4-CH2NHiPr)]TFTSC-OH; disulfide 1-12)	443	> 10000	> 10000	> 1000	> 10000
CC(C)NCc1ccc(C[C@@H]2NC(=O)[C@@H](Cc3ccc4ccccc4c3)NC(=O)[C@H](Cc3ccccc3)NC(=O)[C@H](Cc3ccccc3)NC(=O)[C@H](CCCCN)NC(=O)[C@@H](NC(=O)[C@@H](N)Cc3ccc(O)cc3)CSSC[C@@H](C(=O)O)NC(=O)[C@H](CO)NC(=O)[C@H]([C@@H](C)O)NC(=O)[C@H](Cc3ccccc3)NC(=O)[C@H]([C@@H](C)O)NC2=O)cc1	24	> 1000	> 1000	> 1000	633
C[C@H](N)C(=O)NCC(=O)N[C@H]1CSSC[C@@H](C(=O)O)NC(=O)[C@H](CO)NC(=O)[C@H]([C@@H](C)O)NC(=O)[C@H](Cc2ccccc2)NC(=O)[C@H]([C@@H](C)O)NC(=O)[C@H](CCCCN)NC(=O)[C@@H](Cc2c[nH]c3ccccc23)NC(=O)[C@H](Cc2ccccc2)NC(=O)[C@H](Cc2ccccc2)NC(=O)[C@H](CCCCN)NC1=O (H-AGCKFF[dW]KTFTSC-OH; disulfide 3-13)	1	1.7	5	42.5	3.4
CC(C)NCc1ccc(C[C@@H]2NC(=O)[C@@H](Cc3c[nH]c4ccccc34)NC(=O)[C@H](Cc3ccccc3)NC(=O)[C@H](Cc3ccccc3)NC(=O)[C@H](CCCCN)NC(=O)[C@@H](N)CSSC[C@@H](C(=O)O)NC(=O)[C@@H](CO)NC(=O)[C@H]([C@@H](C)O)NC(=O)[C@H](Cc3ccccc3)NC(=O)[C@H]([C@@H](C)O)NC2=O)cc1 (H-CKFF[dW][Phe(4-CH2NHiPr)]TFT[dS]C-OH; disulfide 1-11)	187	> 1000	> 1000	> 10000	> 1000
CCN=C(NCC)NCCCC[C@@H]1NC(=O)[C@@H](Cc2c[nH]c3ccccc23)NC(=O)[C@H](Cc2ccccc2)NC(=O)[C@H](Cc2ccccc2)NC(=O)[C@H](CCCCN)NC(=O)[C@@H](N)CSSC[C@@H](C(=O)O)NC(=O)[C@H](CO)NC(=O)[C@H]([C@@H](C)O)NC(=O)[C@H](Cc2ccccc2)NC(=O)[C@H]([C@@H](C)O)NC1=O	450	> 1000	> 10000	> 10000	> 1000
CC(C)NCc1ccc(C[C@@H]2NC(=O)[C@@H](Cc3c[nH]c4ccccc34)NC(=O)[C@H](Cc3ccc(O)cc3)NC(=O)[C@H](Cc3ccccc3)NC(=O)[C@H](CCCCN)NC(=O)[C@@H](N)CSSC[C@@H](C(=O)O)NC(=O)[C@H](CO)NC(=O)[C@H]([C@@H](C)O)NC(=O)[C@H](Cc3ccccc3)NC(=O)[C@H]([C@@H](C)O)NC2=O)cc1	530	> 10000	> 1000	> 10000	> 10000

Reference: ChEMBL document CHEMBL1134520, “Potent somatostatin undecapeptide agonists selective for somatostatin receptor 1 (sst1)” (J Med Chem, 2001)
